Laboratory results published in patent publication EP2712863B1, “Novel inhibitors of bacterial biofilms and related methods” (Sequoia Sciences, Inc., priority 2012, dated 2014).
In brackets after ≈: the same amount, converted by molar mass.

Tests used:
P. aeruginosa = experiment: Biofilm growth assay (spreading biofilm on semi-solid agar); type: cell-based; conditions: Pseudomonas aeruginosa; Table 3; concentration that reduces the area of the spreading biofilm by >= 85%; read-out: P. aeruginosa
Source text: (§1) "Biofilm Growth Assay" refers to an assay performed on semi-solid agar surface where the bacteria collectively move out from an inoculation point. To those skilled in the art, the act of bacteria collectively moving out from an inoculation point on a semi-solid surface may be referred to as swarming or a spreading biofilm. (Anderson, et al Microbiology, 2003, 149, 37-46; Daniels, et al. FEMS Microbiology Reviews, 2004, 28, 261-289). The procedure to perform this assay is described in detail in the Examples. This type of surface motility by bacteria has been reported in the literature by those skilled in the art.
(§2) The biofilm growth assay was carried out to measure swarming or biofilm spreading on semi-solid agar media in round plates (for example, 100 × 15 mm), also referred to as Petri dishes. For E. coli, the plates contained LB medium with 0.6% agar and 0.5% glucose. P. aeruginosa plates were made with M8 agar supplemented with 0.2% glucose, 100 µM CaCl2, 1 mM MgSO4, and 0.5% Casamino acids. The agar plates of this assay consisted of 0.4% to 0.7% agar (Bacto or Noble agar), although other media may also be used as described in the literature and known to those skilled in the art. Test compounds at the desired concentration were added to the cooled, autoclaved media. Portions of the media were then poured into the plates (20 mL/plate), and the plates allowed to dry at room temperature for approximately 3 to 4 hours. Alternatively, however, plates may be dried in a laminar flow hood for approximately fifteen to twenty minutes. Overnight cultures were grown in a 37°C shaker in LB (E. coli) or TSB (P. aeruginosa). Plates were inoculated by placing 5 µL of the appropriate overnight culture in the centers of the plates. The plates then were incubated overnight at 37°C. The area of the zone of spreading bacteria was then measured and replicates are averaged. Percent inhibition was calculated as 100 × (area without compound - area with compound)/(area without compound). An active compound was considered that which reduces the area of the spreading biofilm compared to negative controls by greater than or equal to 85%. The values shown in Table 1 are the concentrations of compounds (µg/ml) tested in the biofilm growth assay that reduce the area of the spreading biofilm compared to negative controls by greater than or equal to 85% unless noted differently in Table 1. A > ("greater than" symbol) as used in Table 1 is well understood to those skilled in the art as an indication that the listed concentration was not effective at this concentration.
(§3) All of the compounds shown in Tables 2, 3, 4, and 5, below, were prepared semi-synthetically from oleanolic acid, except for Compounds 2 and 3. Compound 2 was prepared from ursolic acid. Compound 3 was prepared from hederagenin, but could also be prepared from an oleanolic acid analog with a hydroxyl at C23 or C24. These compounds were tested in the spreading biofilm assay according to the methods detailed in Example I, above. The values shown in Tables 2, 3, 4, and 5 are the concentrations of compounds tested in the biofilm growth assay that reduce the area of the spreading biofilm compared to negative controls by greater than or equal to 85%. Table 2. Compound 1 and its Analogs and their inhibitory concentrations in the biofilm growth assay as detailed in Example I, above

E. coli = experiment: as above; type: cell-based; conditions: Escherichia coli; Table 3; concentration that reduces the area of the spreading biofilm by >= 85%; read-out: E. coli
Source text: as §1, §2, §3

Structure (SMILES) | IC85 (P. aeruginosa) | IC85 (E. coli)
CC1(C)CC[C@]2(C(=O)O)CC[C@]3(C)C(=C(c4cccc(N)c4)CC4[C@@]5(C)Cc6c(n[nH]c6N)C(C)(C)[C@@H]5CC[C@]43C)[C@@H]2C1 (stereo partly drawn) [Compound 15, (4aS,6aS,6bR,8aR,13aR,15bS)-12-Amino-15-(3-aminophenyl)-2,2,6a,6b,9,9,13a-heptamethyl-2,3,4,4a,5,6,6a,6b,7,8,8a,9,11,13,13a,13b,14,15b-octadecahydro-1H-chryseno[1,2-f]indazole-4a-carboxylic acid] | 0.25 µg/mL (≈ 0.427 µM) | 1 µg/mL (≈ 1.71 µM)
CC1(C)CC[C@]2(C(=O)O)CC[C@]3(C)C(=C(c4cccc(O)c4)CC4[C@@]5(C)Cc6c(n[nH]c6N)C(C)(C)C5CC[C@]43C)C2C1 (stereo partly drawn) [Compound 16, (4aS,6aS,6bR,13aR)-12-Amino-15-(3-hydroxyphenyl)-2,2,6a,6b,9,9,13a-heptamethyl-2,3,4,4a,5,6,6a,6b,7,8,8a,9,11,13,13a,13b,14,15b-octadecahydro-1H-chryseno[1,2-f]indazole-4a-carboxylic acid] | 1 µg/mL (≈ 1.71 µM) | 2 µg/mL (≈ 3.41 µM)
CC1(C)CC[C@]2(C(=O)O)CC[C@]3(C)C(=C(c4cccc(F)c4)CC4[C@@]5(C)Cc6c(n[nH]c6N)C(C)(C)[C@@H]5CC[C@]43C)[C@@H]2C1 (stereo partly drawn) [Compound 17, (4aS,6aS,6bR,8aR,13aR,15bS)-12-Amino-15-(3-fluorophenyl)-2,2,6a,6b,9,9,13a-heptamethyl-2,3,4,4a,5,6,6a,6b,7,8,8a,9,11,13,13a,13b,14,15b-octadecahydro-1H-chryseno[1,2-f]indazole-4a-carboxylic acid] | 0.5 µg/mL (≈ 0.851 µM) | > 2 µg/mL
CC1(C)CC[C@]2(C(=O)O)CC[C@]3(C)C(=C(c4cccc(CN)c4)CC4[C@@]5(C)Cc6c(n[nH]c6N)C(C)(C)C5CC[C@]43C)C2C1 (stereo partly drawn) [Compound 18, (4aS,6aS,6bR,13aR)-12-Amino-15-(3-(aminomethyl)phenyl)-2,2,6a,6b,9,9,13a-heptamethyl-2,3,4,4a,5,6,6a,6b,7,8,8a,9,11,13,13a,13b,14,15b-octadecahydro-1H-chryseno[1,2-f]indazole-4a-carboxylic acid] | 0.5 µg/mL (≈ 0.835 µM) | 1 µg/mL (≈ 1.67 µM)
CC1(C)CC[C@]2(C(=O)O)CC[C@]3(C)C(=C(c4cccc(C(N)=O)c4)CC4[C@@]5(C)Cc6c(n[nH]c6N)C(C)(C)C5CC[C@]43C)C2C1 (stereo partly drawn) [Compound 19, (4aS,6aS,6bR,13aR)-12-Amino-15-(3-carbamoylphenyl)-2,2,6a,6b,9,9,13a-heptamethyl-2,3,4,4a,5,6,6a,6b,7,8,8a,9,11,13,13a,13b,14,15b-octadecahydro-1H-chryseno[1,2-f]indazole-4a-carboxylic acid] | 1 µg/mL (≈ 1.63 µM) | 1 µg/mL (≈ 1.63 µM)
Cc1ccc(C2=C3C4CC(C)(C)CC[C@]4(C(=O)O)CC[C@@]3(C)[C@]3(C)CCC4C(C)(C)c5n[nH]c(N)c5C[C@]4(C)C3C2)cc1N (stereo partly drawn) [Compound 20, (4aS,6aS,6bR,13aR)-12-Amino-15-(3-amino-4-methylphenyl)-2,2,6a,6b,9,9,13a-heptamethyl-2,3,4,4a,5,6,6a,6b,7,8,8a,9,11,13,13a,13b,14,15b-octadecahydro-1H-chryseno[1,2-f]indazole-4a-carboxylic acid] | 0.5 µg/mL (≈ 0.835 µM) | 2 µg/mL (≈ 3.34 µM)
CN(C)c1cccc(C2=C3C4CC(C)(C)CC[C@]4(C(=O)O)CC[C@@]3(C)[C@]3(C)CCC4C(C)(C)c5n[nH]c(N)c5C[C@]4(C)C3C2)c1 (stereo partly drawn) [Compound 21, (4aS,6aS,6bR,13aR)-12-Amino-15-(3-(dimethylamino)phenyl)-2,2,6a,6b,9,9,13a-heptamethyl-2,3,4,4a,5,6,6a,6b,7,8,8a,9,11,13,13a,13b,14,15b-octadecahydro-1H-chryseno[1,2-f]indazole-4a-carboxylic acid] | 0.5 µg/mL (≈ 0.816 µM) | > 2 µg/mL
CN(C)c1cc(C2=C3[C@@H]4CC(C)(C)CC[C@]4(C(=O)O)CC[C@@]3(C)[C@]3(C)CC[C@H]4C(C)(C)c5n[nH]c(N)c5C[C@]4(C)C3C2)ccn1 (stereo partly drawn) [Compound 22, (4aS,6aS,6bR,8aR,13aR,15bS)-12-Amino-15-(2-(dimethylamino)pyridin-4-yl)-2,2,6a,6b,9,9,13a-heptamethyl-2,3,4,4a,5,6,6a,6b,7,8,8a,9,11,13,13a,13b,14,15b-octadecahydro-1H-chryseno[1,2-f]indazole-4a-carboxylic acid] | 1 µg/mL (≈ 1.63 µM) | > 2 µg/mL
CC1(C)CC[C@]2(C(=O)O)CC[C@]3(C)C(=C(c4ccccc4N)CC4[C@@]5(C)Cc6c(n[nH]c6N)C(C)(C)C5CC[C@]43C)C2C1 (stereo partly drawn) [Compound 23, (4aS,6aS,6bR,13aR)-12-Amino-15-(2-aminophenyl)-2,2,6a,6b,9,9,13a-heptamethyl-2,3,4,4a,5,6,6a,6b,7,8,8a,9,11,13,13a,13b,14,15b-octadecahydro-1H-chryseno[1,2-f]indazole-4a-carboxylic acid] | 1 µg/mL (≈ 1.71 µM) | 2 µg/mL (≈ 3.42 µM)
CC1(C)CC[C@]2(C(=O)O)CC[C@]3(C)C(=C(Cl)CC4[C@@]5(C)Cc6c(n[nH]c6N)C(C)(C)C5CC[C@]43C)C2C1 (stereo partly drawn) [Compound 24, (4aS,6aS,6bR,13aR)-12-Amino-15-chloro-2,2,6a,6b,9,9,13a-heptamethyl-2,3,4,4a,5,6,6a,6b,7,8,8a,9,11,13,13a,13b,14,15b-octadecahydro-1H-chryseno[1,2-f]indazole-4a-carboxylic acid] | 0.5 µg/mL (≈ 0.947 µM) | 1 µg/mL (≈ 1.89 µM)
CC1(C)CC[C@]2(C(=O)O)CC[C@]3(C)C(=C(Br)CC4[C@@]5(C)Cc6c(n[nH]c6N)C(C)(C)[C@@H]5CC[C@]43C)[C@@H]2C1 (stereo partly drawn) [Compound 25, (4aS,6aS,6bR,8aR,13aR,15bR)-12-Amino-15-bromo-2,2,6a,6b,9,9,13a-heptamethyl-2,3,4,4a,5,6,6a,6b,7,8,8a,9,11,13,13a,13b,14,15b-octadecahydro-1H-chryseno[1,2-f]indazole-4a-carboxylic acid] | 0.5 µg/mL (≈ 0.873 µM) | > 2 µg/mL
CC1(C)CC[C@]2(C(=O)O)CC[C@]3(C)C(=C(c4ccoc4)CC4[C@@]5(C)Cc6c(n[nH]c6N)C(C)(C)[C@@H]5CC[C@]43C)[C@@H]2C1 (stereo partly drawn) [Compound 26, (4aS,6aS,6bR,8aR,13aR,15bS)-12-Amino-15-(furan-3-yl)-2,2,6a,6b,9,9,13a-heptamethyl-2,3,4,4a,5,6,6a,6b,7,8,8a,9,11,13,13a,13b,14,15b-octadecahydro-1H-chryseno[1,2-f]indazole-4a-carboxylic acid] | 0.25 µg/mL (≈ 0.447 µM) | 1 µg/mL (≈ 1.79 µM)
CC1(C)CC[C@]2(C(=O)O)CC[C@]3(C)C(=C(c4cn[nH]c4)CC4[C@@]5(C)Cc6c(n[nH]c6N)C(C)(C)[C@@H]5CC[C@]43C)[C@@H]2C1 (stereo partly drawn) [Compound 27, (4aS,6aS,6bR,8aR,13aR,15bS)-12-Amino-2,2,6a,6b,9,9,13a-heptamethyl-15-(1H-pyrazol-4-yl)-2,3,4,4a,5,6,6a,6b,7,8,8a,9,11,13,13a,13b,14,15b-octadecahydro-1 H-chryseno[1,2-f]indazole-4a-carboxylic acid] | 1 µg/mL (≈ 1.79 µM) | > 2 µg/mL
Cn1cc(C2=C3[C@@H]4CC(C)(C)CC[C@]4(C(=O)O)CC[C@@]3(C)[C@]3(C)CC[C@H]4C(C)(C)c5n[nH]c(N)c5C[C@]4(C)C3C2)cn1 (stereo partly drawn) [Compound 28, (4aS,6aS,6bR,8aR,13aR,15bS)-12-Amino-2,2,6a,6b,9,9,13a-heptamethyl-15-(1-methyl-1H-pyrazol-4-yl)-2,3,4,4a,5,6,6a,6b,7,8,8a,9,11,13,13a,13b,14,15b-octadecahydro-1H-chryseno[1,2-f]indazole-4a-carboxylic acid] | 1 µg/mL (≈ 1.74 µM) | 2 µg/mL (≈ 3.49 µM)
CC1(C)CC[C@]2(C(=O)O)CC[C@]3(C)C(=C(c4ccncc4)CC4[C@@]5(C)Cc6c(n[nH]c6N)C(C)(C)[C@@H]5CC[C@]43C)[C@@H]2C1 (stereo partly drawn) [Compound 29, (4aS,6aS,6bR,8aR,13aR,15bS)-12-Amino-2,2,6a,6b,9,9,13a-heptamethyl-15-(pyridin-4-yl)-2,3,4,4a,5,6,6a,6b,7,8,8a,9,11,13,13a,13b,14,15b-octadecahydro-1H-chryseno[1,2-f]indazole-4a-carboxylic acid] | 1 µg/mL (≈ 1.75 µM) | 1 µg/mL (≈ 1.75 µM)
